Results on one molecule are retold here after ChEMBL document CHEMBL1201862, “PubChem BioAssay data set” (2004).

Test systems include RPMI-8226; EKVX; HOP-92; K562; HT-29; 786-0; U-251; UACC-62; MOLT-4; NCI-H23; UO-31; SK-MEL-28; COLO 205; SNB-19; MCF7; A549; BT-549; MDA-MB-231; SR; Malme-3M.
Common to all, as to test: inhibition of tumour cell growth, NCI panel, 48 h

Each structure is given as a SMILES string.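 1) Cells in 96-well plates. 2) Compound, 48 h, 5 concentrations. 3) Linear interpolation between surrounding doses. 4) Unreached endpoint = highest concentration. GI50: concentration for 50% inhibition of growth.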 Activity calls are given as the source filed them. Cut-off read from the data, not from the text of the source: active = GI50 up to about 1.1 µM and inactive = higher.

Regarding `Cc1coc2c1C(=O)C(=O)c1c-2ccc2c1CCCC2(C)C` [TANSHINONE IIA], the GI50 with RPMI-8226 was 1.94 µM (inactive); in the assay with EKVX it was 30.3 µM (inactive); in the assay with HOP-92 it was > 70.5 µM (inactive); in the assay with K562, 0.875 µM (active); with HT-29 it was 10.5 µM (inactive); with 786-0, 1.87 µM (inactive). Also, the GI50 with U-251 is 2.51 µM (inactive); in the assay with UACC-62, 1.63 µM (inactive); in the assay with MOLT-4, 3.18 µM (inactive); in the assay with NCI-H23 it was 1.14 µM (inactive); in the assay on UO-31 it was 2.33 µM (inactive); in the assay with SK-MEL-28, 2.15 µM (inactive). Also, the GI50 in the assay on COLO 205 is 8.07 µM (inactive); in the assay on SNB-19 it was 2.52 µM (inactive); with MCF7 it was 2.18 µM (inactive); in the assay on A549, 1.48 µM (inactive); in the assay with BT-549, 2.1 µM (inactive); with MDA-MB-231, 21.8 µM (inactive). The GI50 in the assay with SR was 0.757 µM (active); in the assay with Malme-3M, 0.508 µM (active).
